In PMC7318697 (2020):

Columns and labels:
[1] = tested on: Febr1T (DNA, G4) GGGCAGGGGGTGATGGGGAGGAGCCAGGG; assay: FRET melting; conditions: 10 mM KCl, 90 mM LiCl; 10 mM Li cacodylate; ligand 5 μM; DNA 0.2 μM
[2] = tested on: telo23 (DNA, G4) TAGGGTTAGGGTTAGGGTTAGGG; assay: 1H imino NMR titration; conditions: 20 mM potassium phosphate, 70 mM KCl; pH 7.0, 298 K, 90% H2O/10% D2O; DNA 185 μM
[3] = tested on: telo23 (DNA, G4) TAGGGTTAGGGTTAGGGTTAGGG; assay: UV/Vis titration; conditions: K+ (100 mM potassium phosphate), pH 7.4, ligand 10 μM; for K d: apparent, independent and equivalent sites
[4] = tested on: F10T (DNA, hairpin, hexaethylene glycol (HEG) linker between nucleotides 10 and 11) TATAGCTATATATAGCTATA; assay: FRET melting; conditions: 10 mM KCl, 90 mM LiCl; 10 mM Li cacodylate; ligand 5 μM; DNA 0.2 μM
[5] = tested on: FmycT (DNA, G4) TTGAGGGTGGGTAGGGTGGGTAA; assay: FRET melting; conditions: 1 mM KCl, 99 mM LiCl; 10 mM Li cacodylate; ligand 5 μM; DNA 0.2 μM
[6] = tested on: F21T (DNA, G4) GGGTTAGGGTTAGGGTTAGGG; assay: FRET melting; conditions: 10 mM Li cacodylate, ligand 5 μM, DNA 0.2 μM

ΔT m [1] [°C] | binding [2] | K d [3] [µM] | ΔT m [4] [°C] | ΔT m [5] [°C] | ΔT m ([6]; 10 mM KCl, 90 mM LiCl) [°C] | ΔT m ([6]; 100 mM NaCl) [°C] | binding ([3]; Kd too weak for accurate determination) | SMILES
22 | yes | – | – | – | – | – | – | C[n+]1ccc(-c2ccc3c(c2)/C(=C2\CCc4ccc(-c5cc[n+](C)cc5)cc42)CC3)cc1
17 | yes | 2 | 3 | 30 | 28 | 19 | – | C[n+]1ccc(-c2ccc3c(c2)CC/C3=C2/CCc3cc(-c4cc[n+](C)cc4)ccc32)cc1
– | – | 70 | – | – | 6 | – | – | CN1CCN(CCCNc2ccc3c(c2)/C(=C2\CCc4ccc(NCCCN5CCN(C)CC5)cc42)CC3)CC1
– | – | – | 0 | 0 | 0 | 0 | weak | CN1CCN(CCCNc2ccc3c(c2)/C(=C2/CCc4ccc(NCCCN5CCN(C)CC5)cc42)CC3)CC1
9 | yes | 70 | – | – | – | – | – | C[n+]1ccc(-c2ccc3c(c2)/C(=C2/CCc4ccc(-c5cc[n+](C)cc5)cc42)CC3)cc1
